Source: ChEMBL document CHEMBL4706663, “Large-scale isolation and antitumor mechanism evaluation of compounds from the traditional Chinese medicine Cordyceps Militaris” (Eur J Med Chem, 2021)
Active and inactive are the calls of the source. The rule behind the calls is not given here.

Key:
A549 = experiment: Antiproliferative activity against human A549 cells assessed as inhibition of cell growth at 12.5 ug/ml measured after 48 hrs by real-time cell analysis relative to control; type: functional; details: read-out: GI
HepG2 = experiment: Antiproliferative activity against human HepG2 cells assessed as inhibition of cell growth at 12.5 ug/ml measured after 48 hrs by real-time cell analysis relative to control; type: functional; details: read-out: GI
[1] = Antitumor activity against […] cancer cells xenografted in BALB/c mouse assessed as tumor weight at 240 mg/kg, ig administered every day for 10 days (reference value: 1.68 +/- 0.78 g); type: functional, Lewis lung carcinoma; details: time 10 day
[2] = Antitumor activity against […] cancer cells xenografted in BALB/c mouse assessed as tumor weight at 80 mg/kg, ig administered every day for 10 days (reference value: 1.68 +/- 0.78 g); type: functional, Lewis lung carcinoma; details: time 10 day
[3] = Antitumor activity against […] cancer cells xenografted in BALB/c mouse assessed as tumor weight at 27 mg/kg, ig administered every day for 10 days (reference value: 1.68 +/- 0.78 g); type: functional, Lewis lung carcinoma; details: time 10 day
[4] = Antitumor activity against […] cancer cells xenografted in BALB/c mouse assessed as tumor growth inhibition at 240 mg/kg, ig administered every day for 10 days relative to control; type: functional; details: Lewis lung carcinoma, po, 240 h, time 10 day, read-out: TGI
[5] = Antitumor activity against […] cancer cells xenografted in BALB/c mouse assessed as tumor growth inhibition at 27 mg/kg, ig administered every day for 10 days relative to control; type: functional; details: Lewis lung carcinoma, po, 240 h, time 10 day, read-out: TGI
[6] = Antitumor activity against […] cancer cells xenografted in BALB/c mouse assessed as lung weight at 80 mg/kg, ig administered every day for 10 days measured post last dose (reference value: 0.13 +/- 0.03 g); type: functional, Lewis lung carcinoma; details: time 10 day
[7] = Antitumor activity against […] cancer cells xenografted in BALB/c mouse assessed as lung weight at 27 mg/kg, ig administered every day for 10 days measured post last dose (reference value: 0.13 +/- 0.03 g); type: functional, Lewis lung carcinoma; details: time 10 day
[8] = Toxicity in […] lung cancer cells xenografted BALB/c mouse assessed as net weight at 27 mg/kg, ig administered every day for 10 days (reference value: 1.16 +/- 1.55 g); type: organism-based; details: in vivo, po, 240 h, time 10 day
[9] = Toxicity in […] lung cancer cells xenografted BALB/c mouse assessed as survival rate at 27 mg/kg, ig administered every day for 10 days (reference value: 100%); type: organism-based; details: in vivo, po, time 10 day
[10] = Antitumor activity against […] cells xenografted in KM mouse assessed as tumor weight at 80 mg/kg, ig administered every day for 10 days (reference value: 0.55 +/- 0.57 g); type: functional; details: time 10 day
[11] = Antitumor activity against […] cells xenografted in KM mouse assessed as tumor growth inhibition at 240 mg/kg, ig administered every day for 10 days relative to control; type: functional; details: H22, po, 240 h, time 10 day, read-out: TGI
[12] = Antitumor activity against […] cells xenografted in KM mouse assessed as tumor growth inhibition at 80 mg/kg, ig administered every day for 10 days relative to control; type: functional; details: H22, po, 240 h, time 10 day, read-out: TGI
[13] = Antitumor activity against […] cells xenografted in KM mouse assessed as tumor growth inhibition at 27 mg/kg, ig administered every day for 10 days relative to control; type: functional; details: H22, po, 240 h, time 10 day, read-out: TGI
[14] = Antitumor activity against […] cells xenografted in KM mouse assessed as liver weight at 240 mg/kg, ig administered every day for 10 days measured post last dose (reference value: 1.57 +/- 0.3 g); type: functional; details: time 10 day
[15] = Antitumor activity against […] cells xenografted in KM mouse assessed as liver weight at 80 mg/kg, ig administered every day for 10 days measured post last dose (reference value: 1.57 +/- 0.3 g); type: functional; details: time 10 day
[16] = Antitumor activity against […] cells xenografted in KM mouse assessed as liver weight at 27 mg/kg, ig administered every day for 10 days measured post last dose (reference value: 1.57 +/- 0.3 g); type: functional; details: time 10 day
[17] = Toxicity in […] cells xenografted KM mouse assessed as net weight at 240 mg/kg, ig administered every day for 10 days (reference value: 9.45 +/- 4 g); type: organism-based; details: in vivo, po, 240 h, time 10 day
[18] = Toxicity in […] cells xenografted KM mouse assessed as net weight at 27 mg/kg, ig administered every day for 10 days (reference value: 9.45 +/- 4 g); type: organism-based; details: in vivo, po, 240 h, time 10 day
[19] = Toxicity in […] cells xenografted KM mouse assessed as survival rate at 240 mg/kg, ig administered every day for 10 days relative to control; type: organism-based; details: in vivo, po, time 10 day
[20] = Toxicity in […] cells xenografted KM mouse assessed as survival rate at 80 mg/kg, ig administered every day for 10 days relative to control; type: organism-based; details: in vivo, po, time 10 day
[21] = Toxicity in […] cells xenografted KM mouse assessed as survival rate at 27 mg/kg, ig administered every day for 10 days relative to control; type: organism-based; details: in vivo, po, time 10 day
[22] = molecular target: Heat shock cognate 71 kDa protein (Homo sapiens) (UniProt P11142); experiment: Binding affinity to heat shock cognate 71 kDa protein isoform 1 in human A549 cells by LC-MS/MS analysis; type: cell-based
[23] = molecular target: Tropomyosin alpha-4 chain (Homo sapiens) (UniProt P67936); experiment: Binding affinity to tropomyosin alpha-4 chain isoform 1 in human A549 cells by LC-MS/MS analysis; type: cell-based
[24] = molecular target: Endoplasmic reticulum chaperone BiP (Homo sapiens) (UniProt P11021); experiment: Binding affinity to 78 kDa glucose-regulated protein in human A549 cells by LC-MS/MS analysis; type: cell-based
[25] = molecular target: Heat shock 70 kDa protein 1A/1B (Homo sapiens) (UniProt P0DMV8+P0DMV9); experiment: Binding affinity to heat shock 70 kDa protein 1A/1B in human A549 cells by LC-MS/MS analysis; type: cell-based
[26] = molecular target: T1, Delta(3,5)-Delta(2,4)-dienoyl-CoA isomerase, mitochondrial (Homo sapiens) (UniProt Q13011); experiment: Binding affinity to delta(3,5)-delta(2,4)-dienoyl-CoA isomerase, mitochondrial in human A549 cells by LC-MS/MS analysis; type: cell-based
T1 sequence (whole entry): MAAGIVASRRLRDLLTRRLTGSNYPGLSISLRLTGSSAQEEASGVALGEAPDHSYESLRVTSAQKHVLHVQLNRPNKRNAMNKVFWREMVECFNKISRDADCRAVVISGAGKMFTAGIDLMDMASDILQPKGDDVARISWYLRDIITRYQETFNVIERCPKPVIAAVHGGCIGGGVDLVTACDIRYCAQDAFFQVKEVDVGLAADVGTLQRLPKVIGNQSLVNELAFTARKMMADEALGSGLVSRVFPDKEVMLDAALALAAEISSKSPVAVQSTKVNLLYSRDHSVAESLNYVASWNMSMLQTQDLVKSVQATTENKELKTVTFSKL

[27] = molecular target: Glyceraldehyde-3-phosphate dehydrogenase (Homo sapiens) (UniProt P04406); experiment: Binding affinity to GAPDH in human A549 cells by LC-MS/MS analysis; type: cell-based
[28] = molecular target: Tropomyosin alpha-1 chain (Homo sapiens) (UniProt P09493); experiment: Binding affinity to tropomyosin alpha-1 chain isoform 1 in human A549 cells by LC-MS/MS analysis; type: cell-based
Tropomyosin alpha-1 chain (Homo sapiens), sequence (P09493 whole entry, canonical isoform): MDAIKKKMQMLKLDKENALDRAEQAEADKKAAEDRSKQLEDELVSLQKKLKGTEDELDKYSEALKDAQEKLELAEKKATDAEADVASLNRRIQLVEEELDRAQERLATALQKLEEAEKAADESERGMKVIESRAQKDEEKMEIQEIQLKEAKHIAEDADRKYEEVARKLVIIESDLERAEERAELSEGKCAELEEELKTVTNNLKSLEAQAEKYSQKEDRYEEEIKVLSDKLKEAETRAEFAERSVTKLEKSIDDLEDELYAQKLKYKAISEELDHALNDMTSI

Endoplasmic reticulum chaperone BiP (Homo sapiens), sequence (P11021 whole entry): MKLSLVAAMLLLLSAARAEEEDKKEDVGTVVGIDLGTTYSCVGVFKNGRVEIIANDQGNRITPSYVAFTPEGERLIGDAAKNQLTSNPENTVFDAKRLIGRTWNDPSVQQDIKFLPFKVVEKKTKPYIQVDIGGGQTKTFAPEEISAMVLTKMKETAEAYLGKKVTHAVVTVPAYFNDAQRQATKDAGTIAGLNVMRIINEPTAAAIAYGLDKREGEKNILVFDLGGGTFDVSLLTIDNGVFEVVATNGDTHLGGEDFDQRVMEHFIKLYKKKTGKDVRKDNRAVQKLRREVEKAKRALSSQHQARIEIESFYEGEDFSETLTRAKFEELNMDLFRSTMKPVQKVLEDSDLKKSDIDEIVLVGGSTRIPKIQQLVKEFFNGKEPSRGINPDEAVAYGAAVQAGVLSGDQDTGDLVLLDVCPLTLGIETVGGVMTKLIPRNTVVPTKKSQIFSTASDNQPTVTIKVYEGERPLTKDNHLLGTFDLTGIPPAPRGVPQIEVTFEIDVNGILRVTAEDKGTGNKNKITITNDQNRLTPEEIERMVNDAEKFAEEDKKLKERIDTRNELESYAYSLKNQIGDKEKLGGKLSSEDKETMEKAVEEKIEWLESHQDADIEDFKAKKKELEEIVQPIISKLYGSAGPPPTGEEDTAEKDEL
Tropomyosin alpha-4 chain (Homo sapiens), sequence (P67936 whole entry, canonical isoform): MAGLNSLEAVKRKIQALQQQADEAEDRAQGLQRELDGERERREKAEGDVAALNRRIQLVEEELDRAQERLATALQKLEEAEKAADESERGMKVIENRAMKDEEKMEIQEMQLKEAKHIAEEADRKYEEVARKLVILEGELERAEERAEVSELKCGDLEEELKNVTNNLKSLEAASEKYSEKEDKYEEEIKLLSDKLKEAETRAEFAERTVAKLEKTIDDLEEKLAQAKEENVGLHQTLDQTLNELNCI
Glyceraldehyde-3-phosphate dehydrogenase (Homo sapiens), sequence (P04406 2-335 limits assumed): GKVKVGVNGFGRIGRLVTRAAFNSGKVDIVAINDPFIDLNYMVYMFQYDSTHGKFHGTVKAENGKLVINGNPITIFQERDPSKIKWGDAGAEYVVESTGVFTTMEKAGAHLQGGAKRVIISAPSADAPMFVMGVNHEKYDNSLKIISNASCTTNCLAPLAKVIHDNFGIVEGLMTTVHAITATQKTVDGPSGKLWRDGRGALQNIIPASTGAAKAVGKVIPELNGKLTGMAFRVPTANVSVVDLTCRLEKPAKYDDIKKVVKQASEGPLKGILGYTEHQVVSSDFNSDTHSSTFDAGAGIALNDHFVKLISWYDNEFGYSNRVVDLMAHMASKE
Heat shock cognate 71 kDa protein (Homo sapiens), sequence (P11142 2-646 limits assumed): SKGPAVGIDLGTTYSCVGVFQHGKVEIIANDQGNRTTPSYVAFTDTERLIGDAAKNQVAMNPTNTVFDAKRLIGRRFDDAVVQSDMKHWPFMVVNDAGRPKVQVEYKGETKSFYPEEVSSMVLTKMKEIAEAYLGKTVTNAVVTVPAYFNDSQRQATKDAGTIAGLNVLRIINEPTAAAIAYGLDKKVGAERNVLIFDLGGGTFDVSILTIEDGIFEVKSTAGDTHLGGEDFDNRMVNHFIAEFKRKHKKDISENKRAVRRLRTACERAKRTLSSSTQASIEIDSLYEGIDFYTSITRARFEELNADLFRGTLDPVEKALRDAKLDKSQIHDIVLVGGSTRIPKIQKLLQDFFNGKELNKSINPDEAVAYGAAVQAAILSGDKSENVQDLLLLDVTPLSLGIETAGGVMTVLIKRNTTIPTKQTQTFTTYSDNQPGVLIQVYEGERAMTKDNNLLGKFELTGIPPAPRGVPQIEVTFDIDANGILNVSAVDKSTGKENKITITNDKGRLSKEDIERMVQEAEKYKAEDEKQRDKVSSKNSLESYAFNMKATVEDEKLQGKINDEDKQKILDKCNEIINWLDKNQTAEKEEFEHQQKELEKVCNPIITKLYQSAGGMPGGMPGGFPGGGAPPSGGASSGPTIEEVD
Heat shock 70 kDa protein 1A/1B (Homo sapiens), sequence (P0DMV8 whole entry, looked up): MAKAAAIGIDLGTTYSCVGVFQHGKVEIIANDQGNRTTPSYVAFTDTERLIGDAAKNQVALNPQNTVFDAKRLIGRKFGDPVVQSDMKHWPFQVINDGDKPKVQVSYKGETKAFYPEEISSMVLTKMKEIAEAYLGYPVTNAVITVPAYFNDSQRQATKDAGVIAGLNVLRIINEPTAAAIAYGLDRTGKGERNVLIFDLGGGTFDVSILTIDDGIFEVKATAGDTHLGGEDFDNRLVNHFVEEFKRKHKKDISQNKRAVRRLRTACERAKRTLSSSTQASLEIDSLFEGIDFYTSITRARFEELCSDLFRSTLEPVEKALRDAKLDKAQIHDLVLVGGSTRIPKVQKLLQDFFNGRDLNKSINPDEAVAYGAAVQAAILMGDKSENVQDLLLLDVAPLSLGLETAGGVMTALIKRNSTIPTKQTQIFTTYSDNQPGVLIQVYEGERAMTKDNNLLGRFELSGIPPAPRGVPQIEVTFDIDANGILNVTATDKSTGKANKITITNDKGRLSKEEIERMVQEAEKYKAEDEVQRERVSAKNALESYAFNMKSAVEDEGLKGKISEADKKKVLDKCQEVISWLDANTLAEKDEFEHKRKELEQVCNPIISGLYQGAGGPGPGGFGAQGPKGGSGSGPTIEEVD
Heat shock 70 kDa protein 1A/1B (Homo sapiens), sequence (P0DMV9 whole entry, looked up): as the sequence (P0DMV8 whole entry, looked up) above

CC(C)[C@@H](C)/C=C/[C@@H](C)[C@H]1CC[C@H]2C3=CC=C4C[C@@H](O)CC[C@]4(C)[C@H]3CC[C@]12C [ERGOSTEROL]
inhibition of growth at 12.5 µg/mL (A549): 100%
inhibition of growth at 12.5 µg/mL (HepG2): 100%
Activity [1]: 0.93 g
Activity [2]: 1.21 g
Activity [3]: 1.42 g
inhibition in vivo at 240 mg/kg [4]: 44.6%
inhibition in vivo at 27 mg/kg [5]: 15.8%
Activity [6]: 0.12 g
Activity [7]: 0.12 g
Activity [8]: -0.36 g
survival at 240 h [9]: 100%
Activity [10]: 0.32 g
inhibition in vivo at 240 mg/kg [11]: 64.4%
inhibition in vivo at 80 mg/kg [12]: 41.1%
inhibition in vivo at 27 mg/kg [13]: 23.4%
Activity [14]: 1.57 g
Activity [15]: 1.87 g
Activity [16]: 1.67 g
Activity [17]: 5.7 g
Activity [18]: 6.92 g
survival at 240 h [19]: 100%
survival at 240 h [20]: 100%
survival at 240 h [21]: 100%
Activity [22]: Active
Activity [23]: Active
Activity [24]: Active
Activity [25]: Active
Activity [26]: Active
Activity [27]: Active
Activity [28]: Active
